Measured values taken from patent publication US20100036088A1, “Selective poly-N-substituted glycine antibiotics” (priority 2008, published 2010).
Square brackets hold non-standard residues; d marks the D form. Peptide text beside a SMILES is read from it. Nspe = C[C@H](NCC(=O)O)c1ccccc1; Nlys = NCCCCNCC(=O)O

Columns and labels:
[1] = tested on: NIH 3T3 mouse fibroblast cells; test: MTS assay, metabolic inhibition; assay type: cell-based; details: Table 3; NIH 3T3 cells
Procedure, shortened: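 NIH/3T3 cells seeded at 5,000 per well, grown a day, then exposed to serially diluted peptoids in HBSS together with MTS reagent. Absorbance at 490 nm read after 3 hours at 37° C.; mean of six replicates.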

[2] = tested on: A549 lung epithelial cells; test: MTS assay, metabolic inhibition
Experimental: The biocompatibility of selected oligomers with A549 lung epithelial cells was evaluated using the MTS [3-(4,5-dimethylthiazol-2-yl)-5-(3-carboxymethoxyphenyl)-2-(4-sulfophenyl)-2H-tetrazolium] assay.
MTS Assays. A549 carcinoma-derived lung epithelial cells (ATTC CCL-185) were cultured in Ham's F12K media (ATTC, Manassas, Va.). A peptoid solution plate (100 μL/well) was prepared by serial dilution of aqueous peptoid stocks in media. Peptoid solutions were transferred onto a 96-well plate of day-old cell monolayers containing 100 μL/well media with ˜5000 cells/well. MTS reagent (Promega Corporation, Madison, Wis.) (40 μL/well) was added to each well and the plate was incubated at 37° C. for 3 h, after which absorbance at 490 nm was determined. Percent inhibition was determined as [1−(A−Atest blank)/(Acontrol−Ablank)]×100, where A is the absorbance of the test well and Acontrol the average absorbance of wells with cells exposed to media and MTS (no peptoid). Atest blank (media, MTS, and peptoid) and Ablank (media and MTS) were background absorbances measured in the absence of cells. The average of six replicates are reported, and error bars show one standard deviation.

SMILES | ID10 (10% metabolic inhibitory concentration) [1] | ID50 (50% metabolic inhibitory concentration) [1] | ID10 relative to that of pexiganan [2] [times]
C[C@@H](c1ccccc1)N(CC(N)=O)C(=O)CN(C(=O)CN(CCCCN)C(=O)CN(C(=O)CN(C(=O)CN(CCCCN)C(=O)CN(C(=O)CN(C(=O)CN(CCCCN)C(=O)CN(C(=O)CN(C(=O)CNCCCCN)[C@@H](C)c1ccccc1)[C@@H](C)c1ccccc1)[C@@H](C)c1ccccc1)[C@@H](C)c1ccccc1)[C@@H](C)c1ccccc1)[C@@H](C)c1ccccc1)[C@@H](C)c1ccccc1 [compound 1, H-(NLys-Nspe-Nspe)4-NH2] (H-[Nlys][Nspe][Nspe][Nlys][Nspe][Nspe][Nlys][Nspe][Nspe][Nlys][Nspe][Nspe]-NH2) | 5.1 | 1.4 | –
C[C@@H](c1ccccc1)N(CC(N)=O)C(=O)CN(C(=O)CN(CCCCN)C(=O)CN(C(=O)CN(C(=O)CN(CCCCN)C(=O)[C@@H]1CCCN1C(=O)CN(C(=O)CN(CCCCN)C(=O)CN(C(=O)CN(C(=O)CNCCCCN)[C@@H](C)c1ccccc1)[C@@H](C)c1ccccc1)[C@@H](C)c1ccccc1)[C@@H](C)c1ccccc1)[C@@H](C)c1ccccc1)[C@@H](C)c1ccccc1 [1-Pro6, H-Nlys-Nspe-Nspe-Nlys-Nspe-L-Pro-(Nlys-Nspe-Nspe)2-NH2] (H-[Nlys][Nspe][Nspe][Nlys][Nspe]P[Nlys][Nspe][Nspe][Nlys][Nspe][Nspe]-NH2) | – | – | 10
